The subject of data set [1] is homologous PCA (passive cutaneous anaphlaxis) of rats. The data set can be described thus: Homologous PCA (passive cutaneous anaphylaxis) test of rats for 48 hours, oral (antiallergic activity). The class given is in vivo, Wistar male rats. As to conditions: Rattus norvegicus; for minimal effective dose: minimum dosage with positive case in at least one of three rats, read-out: MED (minimum effective dosage), PCA inhibition; for responders at 1 mg/kg / responders at 10 mg/kg / responders at 100 mg/kg / responders at 0.1 mg/kg: po, positive = inhibition rate 50% or higher, read-out: Number of positive zooids in one group of 3 zooids (converted); for responders at 1 mg/kg: dosage 1 mg/kg; for responders at 10 mg/kg: dosage 10 mg/kg; for responders at 100 mg/kg: dosage 100 mg/kg; for responders at 0.1 mg/kg: dosage 0.1 mg/kg.

The test system of another data set is dd, male mice. The format is in vivo. As to conditions: mice, mortality 7 days after administration. The procedure:
Groups each consisting of 3 dd, male mice having body weights of 20±1 g were used, and the compound of the present invention was administered orally (po: 300 mg/kg) or intraperitoneally (ip: 100 mg/kg).

For the next data set, the system named is Rat carageenin paw edema. Kind of data set: Carageenin paw edema test (antiinflammatory activity). The class given is in vivo, Wistar male rats. The note with it: average value in one group of 3 rats, 100 mg/kg oral administration. As to the method:
Antiinflammatory activity was examined according to Rat carageenin paw edema [J. Pathol. 104, 15-29 (1971)], Groups each consisting of three Wistar male rats weighing 150 g were used. The test compound was suspended in 0.3% aqueous CMC solution and the suspension was given orally. Sixty minutes later, 0.1 ml of 0.1% carageenin was subcutaneously injected in a hind paw to form carageenin paw edema.
The volume of paw was measured before the administration and 3 hours after the administration of carageenin with plethysmometer.
The ratio of the volume 3 hours after the administration to that before the administration of carageenin was calculated and each ratio is compared with the ratio of control group (0.3% CMC was administered) to give the edema inhibiting percentage.

A value given as a limit tells only on which side of the number the result lay.

For the compound `CN(C)CCN=C1c2ccccc2COc2ccc(CC(=O)O)cc21` [Compound 37, 11-(2-Dimethylaminoethyl)imino-6,11-dihydrodibenz[b,e]oxepin-2-acetic acid], in data set [1], the minimal effective dose amounted to 10 mg/kg, the responders at 1 mg/kg is 0%, the responders at 10 mg/kg was 100% and the responders at 100 mg/kg is 100%. In addition, in the data set on dd, male mice, the “Acute toxicity (MLD), ip” value is above 100 mg/kg and the “Acute toxicity (MLD), po” value was above 300 mg/kg. The “Carageenin paw edema inhibiting percentage” value with Rat carageenin paw edema turned out to be 51.6%.

As for `CCN(CC)CCN=C1c2ccccc2COc2ccc(CC(=O)O)cc21` [Compound 39, 11-(2-Diethylaminoethyl)imino-6,11-dihydrodibenz[b,e]oxepin-2-acetic acid], in data set [1], the minimal effective dose was found to be 1 mg/kg, the responders at 0.1 mg/kg is 0%, the responders at 1 mg/kg was 100% and the responders at 10 mg/kg is 66.7%. Also, the responders at 100 mg/kg in data set [1] was 100%. For the same compound, in the data set on dd, male mice, the “Acute toxicity (MLD), ip” value was above 100 mg/kg and the “Acute toxicity (MLD), po” value is above 300 mg/kg. Moreover, in the data set with Rat carageenin paw edema, the “Carageenin paw edema inhibiting percentage” value is reported as 50.2%.

On to `CN(C)CCCN=C1c2ccccc2COc2ccc(CC(=O)O)cc21` [Compound 41, 11-(3-Dimethylaminopropyl)imino-6,11-dihydrodibenz[b,e]oxepin-2-acetic acid], for which, in data set [1], the minimal effective dose was determined as 1 mg/kg, the responders at 0.1 mg/kg was 0%, the responders at 1 mg/kg was 33.3% and the responders at 10 mg/kg was 66.7%. Further, the responders at 100 mg/kg in data set [1] was 100%. For the same compound, in the data set on dd, male mice, the “Acute toxicity (MLD), ip” value is above 100 mg/kg and the “Acute toxicity (MLD), po” value is above 300 mg/kg. In addition, the “Carageenin paw edema inhibiting percentage” value with Rat carageenin paw edema worked out at 38.7%.

With `CC(C(=O)O)c1ccc2c(c1)C(=NCCN(C)C)c1ccccc1CO2` (stereo not shown) [Compound 45, 2-[11-(2-Dimethylaminoethyl)imino-6,11-dihydrodibenz[b,e]oxepin-2-yl]-propionic acid], in data set [1], the minimal effective dose worked out at 1 mg/kg, the responders at 0.1 mg/kg is 0%, the responders at 1 mg/kg is 66.7% and the responders at 10 mg/kg is 100%. In data set [1], the responders at 100 mg/kg was 100%. Besides, in the data set on dd, male mice, the “Acute toxicity (MLD), ip” value is above 100 mg/kg and the “Acute toxicity (MLD), po” value is given as above 300 mg/kg. The “Carageenin paw edema inhibiting percentage” value in the data set on Rat carageenin paw edema was determined as 63.1%.

The record behind these values is patent US5116863A, “Dibenz[b,e]oxepin derivative and pharmaceutical compositions thereof” (Kyowa Hakko Kogyo Co., Ltd., priority 1986, dated 1992).
